How the values were obtained:
GPR12 = molecular target: T1, GPR12 (Homo sapiens, UniProt P47775); experiment: cAMP GloSensor 22F, GPR12-transfected HEK293A cells; assay type: cell-based
T1 construct: expressed in transfected cells; host or cells: HEK293A, transient
T1 sequence (P47775 1-334): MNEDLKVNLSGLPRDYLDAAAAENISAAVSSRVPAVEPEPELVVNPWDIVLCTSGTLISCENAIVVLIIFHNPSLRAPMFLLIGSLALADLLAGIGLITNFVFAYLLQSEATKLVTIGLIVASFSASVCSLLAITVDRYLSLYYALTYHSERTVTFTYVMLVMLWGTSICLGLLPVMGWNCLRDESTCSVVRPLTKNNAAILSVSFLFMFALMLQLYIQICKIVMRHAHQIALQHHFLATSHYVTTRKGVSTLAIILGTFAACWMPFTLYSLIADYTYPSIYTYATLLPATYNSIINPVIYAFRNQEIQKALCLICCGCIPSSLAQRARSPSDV
Excerpt: (§1) Next, we used the classical cAMP GloSensor technology to assess the target selectivity profile of 33. […] In addition, we tested the effects of 33 on cAMP changes mediated by agonist-stimulated GPCRs phylogenetically close to GPR3 and coupling to Gs or Gi/o proteins. […]
(§2) conditioning and no constraints were applied. The poses were visually inspected and the most favorable one that coincides with the co-solved ligand according to the available structures was chosen.
(§3) Plasmids and molecular cloning
(§4) The H187-EPAC-FRET sensor7 was kindly provided by K. Jalink (The Netherlands Cancer Institute, Amsterdam, The Nether-lands). The BRET-based cAMP sensor CAMYEL8 was kindly provided by Laura Humphrys (University of Regensburg, Regens-burg, Germany). Plasmids encoding the conformational biosensors α2AAR- and β2AR-HaloTag/Nluc9 and the Gs heterotrimer dissociation sensor10 were previously described. The expression plasmid encoding N-terminally HA-tagged GPR3 (cat. no.
(§5) #GPR003TN00) on a pcDNA3.1+ vector was obtained from the cDNA resource center (cdna.org). The Nluc and HaloTag in-serts were amplified with overhanging restriction sites from β2AAR- HaloTag/Nluc and ligated to the full-length C-terminus or inserted into icl3 of GPR3, respectively, to obtain the conformational biosensor GPR3-HaloTag/Nluc. […]

GPR6 = molecular target: T2, GPR6 (Homo sapiens, UniProt P46095); experiment: cAMP GloSensor 22F, GPR6-transfected HEK293A cells; assay type: cell-based
T2 construct: expressed in transfected cells; host or cells: HEK293A, transient
Excerpt: as §1, §2, §3, §4, §5

T2 sequence (P46095 whole entry, species assumed): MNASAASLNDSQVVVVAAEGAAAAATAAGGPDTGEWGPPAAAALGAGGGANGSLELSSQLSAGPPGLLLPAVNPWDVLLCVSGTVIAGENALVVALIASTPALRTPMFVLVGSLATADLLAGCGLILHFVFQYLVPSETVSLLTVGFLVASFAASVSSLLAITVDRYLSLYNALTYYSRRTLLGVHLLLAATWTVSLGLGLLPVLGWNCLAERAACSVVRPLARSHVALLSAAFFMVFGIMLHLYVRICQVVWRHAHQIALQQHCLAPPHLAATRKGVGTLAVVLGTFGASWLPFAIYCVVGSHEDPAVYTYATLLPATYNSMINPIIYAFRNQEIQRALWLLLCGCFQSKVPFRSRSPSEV

`N=c1n(Cc2ccccc2)c2ccccc2n1CC1CC1` [compound 33] was tested, and the “receptor-specific change in cAMP, GPR12” value (GPR12) was “no receptor-specific changes in cAMP levels below 100 μM” and the “receptor-specific change in cAMP, GPR6” value (GPR6) was “no receptor-specific changes in cAMP levels below 100 μM”.

From paper PMC13195669, “GPR3 Ligands Discovered through Combined Virtual and Conformational Biosensor-Based Screening” (Journal of the American Chemical Society, 2026)
